Measurements taken from patent publication US5326774A, “Pharmaceutical preparation of antihypertensive, antianginal, antiarrhythmic and antiglaucomic action” (priority 1992, dated 1994).
Where two headings read alike, the source gives them in different places.

What was measured:
[1] = target: T1, β2-adrenoceptor (Rattus norvegicus, UniProt P10608); assay: Inhibition of isadrin's depressor effect, i.v., anesthetized rats; type: in vivo
T1 construct: positive chronotropic and depressor effects in the anesthetized rats; from tissue; host or cells: whole living rat (blood pressure response to isadrin); endogenous receptor
T1 sequence (P10608 whole entry): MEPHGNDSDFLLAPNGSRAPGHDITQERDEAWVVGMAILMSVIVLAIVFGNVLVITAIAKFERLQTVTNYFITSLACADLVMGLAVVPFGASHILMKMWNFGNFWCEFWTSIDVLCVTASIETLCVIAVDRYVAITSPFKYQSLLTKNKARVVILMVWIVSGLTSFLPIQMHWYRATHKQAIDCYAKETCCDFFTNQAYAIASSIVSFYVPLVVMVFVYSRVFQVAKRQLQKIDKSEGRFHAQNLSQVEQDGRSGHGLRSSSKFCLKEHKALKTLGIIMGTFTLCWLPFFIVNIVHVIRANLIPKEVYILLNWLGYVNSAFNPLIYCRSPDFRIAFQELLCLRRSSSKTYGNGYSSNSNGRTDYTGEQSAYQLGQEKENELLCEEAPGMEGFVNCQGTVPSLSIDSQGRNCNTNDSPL

[2] = system: ventricular fibrillation; assay: Ventricular fibrillation during acute coronary occlusion and reperfusion in anesthetized dogs; type: in vivo, dog; details: single animals, hydrochloride
[3] = system: arterial pressure; assay: Antihypertensive effect in rats with spontaneous hypertension; type: in vivo, rat
[4] = system: β2-adrenoceptor; assay: Isadrin's depressor effect, i.v., anesthetized cats; type: in vivo, cat
Excerpt: (§1) The influence of intravenous injection of the compound according to the invention as compared with the known drugs on […] positive chronotropic and depressor effects in the anesthetized cats was studied.

[5] = system: mesaton-initiated pressor effect; assay: Mesaton-initiated pressor effect in anesthetized rats; type: in vivo, rat
[6] = system: β-adrenoceptor; assay: Partial agonistic activity and non-specific membrane-stabilizing effect
[7] = system: heart rate; assay: Heart rate in anesthetized rats, i.v.; type: in vivo, rat; details: for heart rate: control 271±7
Experimental: (§2) β-adrenoceptor blocking activity of the active principle of the pharmaceutical preparation of the invention was studied. […]. The test substances were injected to several groups of animals (6-10 individuals each) in the graded doses of 0.001, 0.0025, 0.01, 0.025, and 0.1 mg/kg.
(§3) From the dosage of […] it gave rise to the lowering of arterial pressure (from 159±9 in the control to 141±11, 127±10 and 123 ±11 mm Hg in the dosages of 0.01, 0.025 and 0.1 mg/kg). From the dosage of 0.0025 mg/kg the compound of the invention gave rise to the dose-related suppression of the isadrin-initiated depressor effect (by 12,63, 82 and 90% in doses of 0.0025, 0.01, 0.025 and 0.1 mg/kg) and, starting from the dosage of […], a positive chronotropic (by 25, 46 and 78% in doses of 0.01, 0.025 said 0.1 mg/kg, respectively) effect.

[8] = system: intraocular tension of intact rabbit eyes; details: for Average decrease of intraocular tension OD, M ± m / Intraocular tension level OD, M ± m: 1% solution
Experimental: The effects of the compound according to the invention on intraocular tension and hydrodynamics of the eye was tested in 28 chinchilla rabbits with body weight of 2.5-3.5 kg.
The left animal eyes were control wherein using the same procedure a diluent was instilled.

[9] = system: arterial pressure; assay: Arterial pressure in anesthetized rats, i.v.; type: in vivo, rat; details: for arterial pressure: control 159±9
Experimental: as §2, §3

[10] = in vivo; details: mouse
Excerpt: LD50 values were estimated by using the Litchfield-Wilckoxon method.

[11] = system: experimental animals; assay: Chronic toxicity, intragastric; type: in vivo
[12] = system: β1-adrenoceptor; assay: Isadrin's positive chronotropic effect, i.v., anesthetized cats; type: in vivo, cat
Excerpt: as §1

[13] = system: myocardium necrosis; assay: Myocardium necrosis in rats with labile coronary occlusion; type: in vivo, rat; details: for Mass and size myocardium (% to the total area of aortic ventricle): control 31.2 ± 1.96; for Area of myocardium necrosis (% to the total area of aortic ventricle): control 33.5 ± 2.5
[14] = Solubility of the active principle; type: physicochemical
[15] = system: arterial pressure; assay: Antihypertensive effect in rats with renovascular hypertension; type: in vivo, rat
Experimental: . In rats suffering from renovascular hypertension the compound of the invention in the dosage of 10 mg/kg (injected intramuscularly) lowered with confidence the arterial pressure (from 137±3 to 117±5 mm of Hg column) 30 minutes after being administered. The 2-week course of the administration of the compound according to the invention (10 mg/kg 1 time a day) caused the antihypertensive effect to be enhanced. By the end of the second week the arterial pressure was 110±8.6 mm Hg. […]

[16] = target: T2, β1-adrenoceptor (Rattus norvegicus, UniProt P18090); assay: Inhibition of isadrin's positive chronotropic effect, i.v., anesthetized rats; type: in vivo
T2 construct: positive chronotropic and depressor effects in the anesthetized rats; from tissue; host or cells: whole living rat (heart rate response to isadrin); endogenous receptor
T2 sequence (P18090 whole entry): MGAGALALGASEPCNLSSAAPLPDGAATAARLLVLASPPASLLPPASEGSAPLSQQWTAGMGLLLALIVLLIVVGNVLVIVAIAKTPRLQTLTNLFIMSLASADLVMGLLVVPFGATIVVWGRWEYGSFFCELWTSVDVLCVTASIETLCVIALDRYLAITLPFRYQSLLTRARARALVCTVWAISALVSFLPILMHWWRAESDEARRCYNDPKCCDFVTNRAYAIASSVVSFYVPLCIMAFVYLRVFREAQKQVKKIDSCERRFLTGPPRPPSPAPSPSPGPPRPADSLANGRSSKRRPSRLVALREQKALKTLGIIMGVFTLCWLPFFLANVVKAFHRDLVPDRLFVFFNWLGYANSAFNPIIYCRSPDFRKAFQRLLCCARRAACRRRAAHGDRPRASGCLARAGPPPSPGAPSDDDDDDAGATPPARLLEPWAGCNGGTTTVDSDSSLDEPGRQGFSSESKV

[17] = system: β-adrenoceptor; assay: β-adrenoceptor blocking effect duration; details: in vivo
[18] = system: β-adrenoceptor; assay: Specificity of β-adrenoceptor blocking effect: positive inotropism
Excerpt: Thus, the compound of the invention relates to specific β-adrenoceptor blocking agents.

Cc1noc(COc2ccccc2OCC(O)CNC(C)(C)C)n1.Cl (centres unmarked) [Compound of the invention, 3-methyl-5-[2-(3-tert.butylamino-2-hydroxypropoxy)phenoxymethyl]-1,2,4-oxadiazole hydrochloride]
suppression of the isadrin-initiated depressor effect ([1]; 0.025 mg/kg i.v.): 82% | suppression of the isadrin-initiated depressor effect ([1]; 0.1 mg/kg i.v.): 90% | β2-adrenoceptor blocking activity, times as high as labetalol ([1]; comparison of ED50, rats i.v.): 412 times | β2-adrenoceptor blocking activity, times as high as oxprenolol ([1]; comparison of ED50, rats i.v.): 4 times | β2-adrenoceptor blocking activity, times as high as pindolol ([1]; comparison of ED50, rats i.v.): 2 times | β2-adrenoceptor blocking activity, times as high as propranolol ([1]; comparison of ED50, rats i.v.): 11 times | dosage from which isadrin depressor effect suppressed ([1]; i.v.): 0.0025 mg/kg | ED50 ([1]; rat, iv, read-out: Dosage inhibiting isadrin's depressor effect by 50%, ED50): 0.008 ± 0.0007 mg/kg | Ventricular fibrillation during acute occlusion and reperfusion ([2]; 10 min after injection): R | Ventricular fibrillation during acute occlusion and reperfusion ([2]; 60 min after injection): R | hypotensive and antihypertensive properties [3]: shows hypotensive and antihypertensive properties | β2-adrenoceptor blocking activity, times as high as labetalol [4]: 114 times | β2-adrenoceptor blocking activity, times as high as oxprenolol [4]: 43 times | β2-adrenoceptor blocking activity, times as high as propranolol [4]: 2 times | effect on mesaton pressor effect ([5]; 3 mg/kg i.v.): did not change | suppression of mesaton pressor effect ([5]; 10 mg/kg i.v., average): 76% | non-specific membrane-stabilizing effect [6]: has a non-specific membrane-stabilizing effect | partial agonistic activity [6]: fails to exhibit a partial agonistic activity | heart rate ([7]; 0.0025 mg/kg i.v.): 249±11 beat/min. | heart rate ([7]; 0.01 mg/kg i.v.): 238±16 beat/min. | heart rate ([7]; 0.025 mg/kg i.v.): 204±14 beat/min. | heart rate ([7]; 0.1 mg/kg i.v.): 181±14 beat/min. | minimal effective dose ([7]; Rattus norvegicus, iv, read-out: dosage from which heart rate decreased): 0.0025 mg/kg | tolerability for rabbit eyes ([8]; 0.5, 1 and 2% solutions): well-tolerable | Average decrease of intraocular tension OD, M ± m ([8]; 1 hour): 1.9 ± 0.3 ram of Hg column | Intraocular tension level OD, M ± m ([8]; 1 hour): 17.1 ± 0.3 ram of Hg column | Average decrease of intraocular tension OD, M ± m ([8]; 2 hours): 2.6 ± 0.2 ram of Hg column | Intraocular tension level OD, M ± m ([8]; 2 hours): 16.5 ± 0.4 ram of Hg column | Average decrease of intraocular tension OD, M ± m ([8]; 3 hours): 2.3 ± 0.3 ram of Hg column | Intraocular tension level OD, M ± m ([8]; 3 hours): 17.1 ± 0.4 ram of Hg column | Average decrease of intraocular tension OD, M ± m ([8]; 4 hours): 2.3 ± 0.3 ram of Hg column | Intraocular tension level OD, M ± m ([8]; 4 hours): 17.1 ± 0.2 ram of Hg column | Average decrease of intraocular tension OD, M ± m ([8]; 5 hours): 1.5 ± 0.5 ram of Hg column | Intraocular tension level OD, M ± m ([8]; 5 hours): 17.6 ± 0.4 ram of Hg column | Average decrease of intraocular tension OD, M ± m ([8]; 6 hours): 1.2 ± 0.4 ram of Hg column | Intraocular tension level OD, M ± m ([8]; 6 hours): 17.8 ± 0.4 ram of Hg column | Average decrease of intraocular tension OD, M ± m ([8]; 24 hours): 0.8 ± 0.5 ram of Hg column | Intraocular tension level OD, M ± m ([8]; 24 hours): 18.2 ± 0.7 ram of Hg column | mechanism of lowering of intraocular tension ([8]; intact rabbit eyes): decrease in secretion of surface water (watery moisture) | duration of lowering of intraocular tension ([8]; intact rabbit eyes, 0.5, 1 and 2% solutions): 6 to 8 h | irritating effect ([8]; rabbit, in vivo): no irritating effect | pupil value ([8]; rabbit, in vivo): do not change considerably the pupil value | arterial pressure ([9]; 0.01 mg/kg i.v.): 141±11 mm Hg | arterial pressure ([9]; 0.025 mg/kg i.v.): 127±10 mm Hg | arterial pressure ([9]; 0.1 mg/kg i.v.): 123 ±11 mm Hg | minimal effective dose ([9]; Rattus norvegicus, iv, read-out: dosage from which arterial pressure lowered): 0.1 mg/kg | LD50 at 72 h ([10]; iv): 72.5 mg/kg | LD50 at 72 h ([10]; po): 600 mg/kg | biochemical blood values ([11]; 5 and 30 mg/kg, 6 months): no effect on biochemical blood values | clinical blood values ([11]; 5 and 30 mg/kg, 6 months): did not change the clinical blood values | influence on behavior, appearance, body functions ([11]; 5 and 30 mg/kg, 6 months): not exert an essential influence | locally irritant effect ([11]; 5 and 30 mg/kg, 6 months): did not exert any locally irritant effect | pathologic alterations in structure of internals ([11]; 5 and 30 mg/kg, 6 months): did not lead to pathologic alterations | chronic toxicity tolerance ([11]; intragastric): excellent tolerance | β1-adrenoceptor blocking activity compared with pindolol [12]: close to pindolol | β1-adrenoceptor blocking activity, factor over labetalol [12]: 550 | β1-adrenoceptor blocking activity, factor over oxprenolol [12]: 35 | β1-adrenoceptor blocking activity, factor over propranolol [12]: 3.5 | Mass and size myocardium (% to the total area of aortic ventricle) ([13]; 1 mg/kg): 31.5% | Area of myocardium necrosis (% to the total area of aortic ventricle) ([13]; 1 mg/kg): 30% | aortic ventricle necrosis in mass and size ([13]; 5 mg/kg i.v.): decreasing in the aortic ventricle necrosis in mass and size | Mass and size myocardium (% to the total area of aortic ventricle) ([13]; 5 mg/kg, P < 0.05): 23.6 ± 3.2% | Area of myocardium necrosis (% to the total area of aortic ventricle) ([13]; 5 mg/kg, P < 0.05): 24.3 ± 3.4% | solubility in ethyl ether [14]: substantially insoluble | solubility in water, chloroform, ethanol [14]: readily soluble | arterial pressure ([15]; 10 mg/kg 1 time a day, end of second week): 110±8.6 mm Hg | arterial pressure ([15]; 10 mg/kg i.m., 30 minutes, from 137±3): 117±5 mm of Hg column | efficacy on long-time use ([15]; long time use): its efficacy is not becoming low (no drug addiction) | suppression of isadrin positive chronotropic effect ([16]; 0.01 mg/kg i.v.): 25% | suppression of isadrin positive chronotropic effect ([16]; 0.025 mg/kg i.v.): 46% | suppression of isadrin positive chronotropic effect ([16]; 0.1 mg/kg i.v.): 78% | β1-adrenoceptor blocking activity compared with pindolol ([16]; comparison of ED50, rats i.v.): close to pindolol | β1-adrenoceptor blocking activity, factor over labetalol ([16]; comparison of ED50, rats i.v.): 23 | β1-adrenoceptor blocking activity, factor over oxprenolol ([16]; comparison of ED50, rats i.v.): 9 | β1-adrenoceptor blocking activity, factor over propranolol ([16]; comparison of ED50, rats i.v.): 12 | dosage from which isadrin positive chronotropic effect suppressed ([16]; i.v.): 0.1 mg/kg | ED50 ([16]; rat, iv, read-out: Dosage inhibiting isadrin's positive chronotropism by 50% (ED50)): 0.03 ± 0.001 mg/kg | β-adrenoceptor blocking effect duration [17]: somewhat superior to propranolol and oxprenolol | effect on positive inotropism of isadrin [18]: completely arrested | effect on positive inotropism of strophanthin, calcium chloride and theophylline [18]: did not inhibit but even somewhat enhanced
